For one data set, the system named is Erythrocyte. The data set is described as follows: Hemolytic activity in Albino rat RBC at 150 uM incubated for 15 mins by spectrophotometric analysis. It is filed as toxicity, cell-based. Particulars: 0.25 h.
Another data set has as its target Tubulin (Homo sapiens) (UniProt P68371+Q9H4B7+P0DPH7+P68366+Q13509+Q71U36+P04350+Q3ZCM7+P07437+P68363+Q9BQE3+Q6PEY2+Q13885+Q9BVA1+Q9BUF5). Description: Inhibition of tubulin polymerization in human MCF7 cells assessed as fold increase in tubulin inhibition incubated for 18 to 24 hrs by ELISA method. The data set is classed as cell-based. The note with it: time 18-24 hrs. On the technique in general: An ELISA detects its analyte on a solid surface through an enzyme-linked reagent.

Another data set concerns WI-38. The data set is described as follows: Cytotoxicity against human WI-38 cells assessed as reduction in cell viability at 10 to 100 uM measured after 24 hrs by MTT assay. The note with it: wi-38, 24 h, dose 10-100 µM. The data set is classed as toxicity, cell-based.
The test system of another data set is A549. Description: Antiproliferative activity against human A549 cells assessed as inhibition of cell growth measured after 24 hrs by MTT assay. The data set is classed as functional, cell-based. The note with it: A549, 24 h. (In general: Formazan colour is commonly taken as a measure of viable cells.)
Another data set concerns MCF7. The data set is described as follows: Antiproliferative activity against human MCF7 cells assessed as inhibition of cell growth measured after 24 hrs by MTT assay. Particulars: MCF7, 24 h. It is filed as functional, cell-based.
A further data set concerns the target Tubulin. Description: Inhibition of tubulin polymerization in human MCF7 cells incubated for 18 to 24 hrs by ELISA method. It is filed as cell-based.

The structures appear in SMILES notation.

On to `CCCCCCCCCCCCCCCC(=O)Nc1ccc(C(=O)/C=C/c2ccc(OC)cc2)cc1`, for which the Activity entry in the data set on Erythrocyte is “Non-Toxic”.
For `CCCCCCCCCCCCCCCC(=O)Nc1ccc(C(=O)/C=C/c2ccc(C)cc2)cc1`, in the data set with Erythrocyte, the Activity entry is reported as “Non-Toxic”.
Take `CCCCCCCCCC(=O)Nc1ccc(C(=O)/C=C/c2ccc(OC)cc2)cc1`: the fold change (FC) at Tubulin (Homo sapiens) is 2.
By IC50 is commonly meant the midpoint of a concentration-inhibition curve. As to `CCCCCCCCCC(=O)Nc1ccc(C(=O)/C=C/c2ccccc2)cc1`, the Activity entry in the data set on WI-38 is “Non-Toxic”. Also, the IC50 in the data set on A549 turned out to be 650 nM.
`CCCCCCCCCC(=O)Nc1ccc(C(=O)/C=C/c2ccc(C)cc2)cc1`: the IC50 came to 2600 nM in the data set on MCF7 and 2100 nM with A549. For the same molecule, the fold change (FC) on Tubulin (Homo sapiens) was found to be 2. For the same molecule, in the data set on WI-38, the Activity result was “Non-Toxic”.
For `CCCCCCCCCCCCCCCCCC(=O)Nc1ccc(C(=O)/C=C/c2ccccc2)cc1`, the Activity entry with WI-38 is “Non-Toxic”. The molecule further returned an IC50 against Tubulin of 800 nM.
`CCCCCCCCCCCCCCCC(=O)Nc1ccc(C(=O)/C=C/c2ccc(Cl)cc2)cc1`: the Activity result in the data set on Erythrocyte is “Non-Toxic”.
For the molecule `CCCCCCCCCC(=O)Nc1ccc(C(=O)/C=C/c2ccc(Cl)cc2)cc1`, the IC50 stood at 2900 nM in the data set with MCF7 and 3200 nM in the data set with A549. Moreover, the fold change (FC) at Tubulin (Homo sapiens) was found to be 2. Besides, in the data set with WI-38, the Activity result is “Non-Toxic”.
With `CCCCCCCC(=O)Nc1ccc(C(=O)/C=C/c2ccccc2)cc1`, the IC50 in the data set with MCF7 was found to be 2100 nM; at Tubulin it was 1500 nM. The Activity entry with WI-38 is recorded as “Non-Toxic”.
Turning to `CCCCCCCCCCCCCC(=O)Nc1ccc(C(=O)/C=C/c2ccccc2)cc1`, in the data set on WI-38, the Activity entry is given as “Non-Toxic”.
Same read-out and setting: with `CCCCCCCCCCCCCCCC(=O)Nc1ccc(C(=O)/C=C/c2ccccc2)cc1` the entry was “Non-Toxic”.

For the origin of these results see ChEMBL document CHEMBL5316360, “Fatty Acid Conjugated Chalcones as Tubulin Polymerization Inhibitors: Design, Synthesis, QSAR, and Apoptotic and Antiproliferative Activity” (J Nat Prod, 2023).
